Assays:
[1] = test system: KRS-OE; test: Transgenic C. parvum NanoLuciferase drug sensitivity assay, KRS-OE; format: cell-based; conditions: Cryptosporidium parvum, HCT-8, 48 h, read-out: EC50, KRS-OE
[2] = test system: wild type C. parvum; test: Neonatal calf efficacy model; format: in vivo; conditions: for calves receiving treatment that shed Cryptosporidium after day 16 PI: 15 mg/kg BID 7 days, n=7; for Cryptosporidium shedding: 15 mg/kg BID oral 7 days from day 1 PI, to day 16 PI; for fecal scores: 15 mg/kg BID, 0 = normal, 3 = severe, treatment period
Experimental: Calves were enrolled at birth and challenged with wild type C. parvum oocysts (Fig. 5A). DDD489 and DDD508 were administered orally at 15 mg/kg BID for 7 days, beginning on day 1 PI. Blood was sampled and mean free plasma concentration was determined (Fig. S10). Fecal samples were collected from individual animals and parasite shedding was quantified (oocyst/g) by microscopy and quantitative PCR. Fecal samples were collected daily until day 21 PI to monitor for parasite recrudescence. To determine the impact of our late lead compounds on reducing symptoms of cryptosporidiosis, several clinical observations were scored throughout the study.
Calves (Holstein Friesian, British Blue Cross, Limousin Cross, or Aberdeen Angus Cross) were born at commercial dairy farms, provided a colostrum feed, and transported to Moredun Scientific. Calves were enrolled in the study if >30 kg at birth and in good health. Enrolment was staggered due to timing of births.
Calves were assigned to control or treatment groups (7 calves per group) and housed in separate barns (within each barn calves were housed in adjacent, individual pens). Male calves were used in the DDD489 study, and both male and female calves were used in the DDD508 study (control group: 3 females/4 males; treatment group: 2 females/5 males). Calves were challenged on day 1 post birth with 5x10^5 C. parvum oocysts by oral gavage (Sterling Labs for DDD489; Waterborne Inc. for DDD508).
Starting day 1 PI, vehicle (in 0.5% HPMC, 0.4% Tween 80, 0.5% Benzyl alcohol in sterile water) or treatment (DDD489 or DDD508) were administered by oral gavage twice daily immediately prior to milk feeds, and at least 8 hours apart (± 30 minutes). Vehicle was delivered at a set volume (22.6 ml per occasion) and test compound at 15 mg/kg (maximum volume of 20 ml per occasion; prepared in vehicle). Blood samples were collected from all animals prior to morning treatment on Day 1, then 5 (± 2) minutes, 15 (± 2) minutes, 30 (± 5) minutes, 1, 2, 4, 8 and 24 hours (± 10 minutes) post first daily dose. This sample schedule was repeated on Day 7 for the same animals. Blood samples were processed to plasma. Weight was measured and clinical observations recorded as indicated. Fecal samples were collected daily throughout the study. […]
was limited to staff involved in the study, and separate PPE was dedicated for use with each […]
Specified staff were involved in preparing the vehicle and treatment material and were not involved in its administration. These staff were not involved in taking and recording clinical observations or collecting samples. Staff that administered the vehicle and treatment materials were blinded to the material identity. If staff involved in administration of materials or sample collection became “unblinded” at any point in the study, they were immediately removed from […]
Quantification of Cryptosporidium shedding from calf samples (Moredun Scientific and […]
Oocyst per gram from calf fecal samples was determined by microscopy (performed at MRI) and by qPCR (Pawlowic Lab at the University of Dundee). For microscopy 0.1 g of fecal material was resuspended in 10 ml PBS. 100 microliters of diluted fecal material was incubated with 15 microliters Cryptosporidium FITC Stain (CellLabs) and incubated at 37 °C for 15 minutes. Samples were then mounted on a grided slide and counted using a fluorescent microscope. For qPCR, fecal samples were continuously stored in 4°C and transported to the University of Dundee. DNA was extracted from 100mg of fecal material (unless otherwise noted) using the Zymo Quick-DNA Fecal/Soil Microbe Miniprep Kit (Cambridge Bioscience, catalog #D6010). Once material was suspended in Bashing Bead Buffer we modified the protocol slightly by adding 5 freeze/thaw cycles.(32) DNA was stored in 4°C to await qPCR.
For the standard curve, known amounts of wild-type oocysts were added to 100 mg of uninfected murine fecal sample and DNA was extracted using the protocol detailed above. We […]

[3] = target: CYP450 2D6 (Homo sapiens, UniProt P10635); test: CYP450 inhibition 2D6; format: in vitro ADME
Sequence of CYP450 2D6 (P10635 whole entry): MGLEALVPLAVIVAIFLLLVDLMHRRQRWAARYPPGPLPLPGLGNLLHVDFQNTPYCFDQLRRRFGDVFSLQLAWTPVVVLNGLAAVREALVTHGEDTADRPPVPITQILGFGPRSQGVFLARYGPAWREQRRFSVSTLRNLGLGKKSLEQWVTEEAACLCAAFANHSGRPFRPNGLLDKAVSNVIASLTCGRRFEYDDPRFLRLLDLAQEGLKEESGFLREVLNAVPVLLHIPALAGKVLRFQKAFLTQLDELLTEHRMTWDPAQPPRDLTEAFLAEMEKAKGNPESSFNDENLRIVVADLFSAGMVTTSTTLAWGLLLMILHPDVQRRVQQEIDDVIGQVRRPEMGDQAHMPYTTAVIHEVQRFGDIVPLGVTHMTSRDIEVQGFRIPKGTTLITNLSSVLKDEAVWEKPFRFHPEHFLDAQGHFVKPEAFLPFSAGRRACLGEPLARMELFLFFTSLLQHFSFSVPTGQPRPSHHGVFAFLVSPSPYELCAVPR
Experimental: CYP450 inhibition (Dundee)
As previously described.(31)
DDD489 and DDD508 were evaluated for their ability to induce reverse mutations both in the presence and absence of S9 mix at the histidine locus in the genome of four strains of Salmonella typhimurium (TA98, TA100, TA1535, and TA97a) and at the tryptophan locus in the genome of Escherichia coli WP2 uvrA in a mini-Ames study conducted at WuXi App Tec […]
hERG inhibition (WuXi App Tec)
DDD489 and DDD508 were evaluated for their effects on cloned hERG potassium channels stably expressed in Chinese Hamster Ovary (CHO) cells using manual patch-clamp technique in a hERG inhibition assay conducted at WuXi App Tec (Suzhou).
Mitochondrial toxicity (Cyprotex)
DDD489 and DDD508 were evaluated for their effects on mitochondrial function in a functional mitochondrial toxicity assay using Seahorse XFe96 flux analyser conducted at […]
44 screen safety panel (Eurofins)
DDD489 was evaluated for off-target effects in a SafetyScreen44 panel at Eurofins Cerep.
All regulated procedures, at the University of Dundee, on living animals were carried out under the authority of a project license issued by the Home Office under the Animals (Scientific Procedures) Act 1986, as amended in 2012 (and in compliance with EU Directive EU/2010/63). […]

[4] = NOD SCID Gamma mice at MED 30 mg/kg, first and last days of treatment
Text: Figure S6. Blood concentration time profiles for late lead compounds in infected mice.
Mean free blood concentration time profiles following oral administration of late lead compounds to NOD SCID Gamma (A a n d B ) and IFN-Gamma KO (C and D) mice twice daily for 7 days as described in Fig. 1C and Fig. 4A) respectively. Data are mean ± SD (3 mice per group). Blood samples were collected on the first day (squares) and last day (circles) of compound dosing (Day 7 and 13 PI for NOD SCID Gamma, Day 6 and 13 for IFN-Gamma KO). Total drug concentrations were corrected for fraction unbound (fu) in PPB assay […]
mg/kg) was administered to NOD SCID Gamma mice. (B) DDD508 (10 mg/kg) was administered to NOD SCID Gamma mice. Blood concentrations were scaled to 30 mg/kg for comparison, assuming dose linearity. (C) DDD489 (50 mg/kg) was administered to IFN-Gamma KO mice. (D) DDD508 (50 mg/kg) was administered to IFN-Gamma KO mice.
(1 picture or pasted object on this page, not shown here)

[5] = Liver microsomal intrinsic clearance, bovine; format: in vitro ADME; conditions: bovine liver microsomes

SMILES	EC50 [1] [µM]	calves receiving treatment that shed Cryptosporidium after day 16 PI [2]	Cryptosporidium shedding [2]	fecal scores [2]	IC50 [3] [µM]	free blood concentration relative to EC90 [4]	Mics CLi (b) [5] [mL/min/g]
Nc1nc2c(c(C(F)(F)F)n1)C(=O)N(CC1CCCC(C(F)(F)F)C1)C2 (centres unmarked) [DDD489]	0.978	3/7	did not shed any detectable amount of Cryptosporidium	normal to mild range	8	only above the EC90 for around two hours	25
O=C(NCC1(O)CCCCC1)c1cc(=O)c2cc(O)ccc2o1 [DDD508]	> 1	4/7	did not shed any detectable amount of Cryptosporidium	normal to mild range	> 100	only above the EC90 for around two hours	< 0.5
